Measurements published in patent publication US20230085307A1, “PYRIDAZINONE COMPOUND AND HERBICIDE” (NISSAN CHEMICAL CORPORATION, priority 2019, published 2023).

What was measured:
persian speedwell [1] = test: Test Example 4: herbicidal effect by soil treatment (Table 19, symbol R); type: in vivo, Persian speedwell (Veronica persica); conditions: amount of applied herbicide 320 g/ha
Outline: (§1)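 Step 1: sow seeds in sterilized diluvial soil, cover ~1.5 cm. Step 2: spray diluted emulsion onto soil surface at predetermined rate. Step 3: greenhouse, 25–30° C, three weeks. Step 4: grade effect on each plant by earlier criteria.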

chickweed [2] = test: Test Example 4: herbicidal effect by soil treatment (Table 19, symbol P); type: in vivo, common chickweed (Stellaria media); conditions: amount of applied herbicide 320 g/ha
Outline: as §1

Japanese bulrush = test: Test Example 1: herbicidal activity, application before weed generation under submerged conditions (Table 16, symbol B); type: in vivo, Japanese bulrush (Schoenoplectus juncoides)
Outline: (§2)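 Submerged Wagner pots (alluvial soil, 4 cm water) sown with weed seeds and planted with 2.5-leaf rice seedlings; emulsifiable concentrate diluted in water applied to water surface on sowing day. Held in greenhouse at 25-30 °C; injury scored 0-5 by herbicidal rate after three weeks.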

Italian ryegrass [3] = test: Test Example 5: herbicidal effect by foliage application, plastic box (Table 20, symbol K); type: in vivo, Italian ryegrass (Lolium multiflorum); conditions: 320 g/ha, evaluated three weeks after application
Outline: (§3)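 Foliar spray test: emulsion formulation diluted in water to a set application rate, sprayed onto 14-day-old plants raised in diluvial soil at 25° C to 30° C under glass. Both herbicidal effect and crop effect rated visually three weeks later.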

barnyard grass [4] = test: Test Example 4: herbicidal effect by soil treatment (Table 19, symbol H); type: in vivo, barnyard grass (Echinochloa crus-galli); conditions: amount of applied herbicide 320 g/ha
Outline: as §1

velvetleaf [5] = test: Test Example 4: herbicidal effect by soil treatment (Table 19, symbol M); type: in vivo, velvetleaf (Abutilon theophrasti); conditions: amount of applied herbicide 320 g/ha
Outline: as §1

wild oat [6] = test: Test Example 4: herbicidal effect by soil treatment (Table 19, symbol I); type: in vivo, wild oat (Avena fatua); conditions: amount of applied herbicide 320 g/ha
Outline: as §1

rice flat sedge = test: Test Example 3: herbicidal effect by foliage application, Wagner pot (Table 18, symbol E); type: in vivo, rice flat sedge (Cyperus iria)
Outline: (§4)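 Plants were sown in alluvial soil held under 0.1–0.5 cm standing water and grown 14 days in a greenhouse at 25–30 °C. An emulsifiable formulation, water-diluted to the set dose, was then sprayed onto the foliage, and effects were scored three weeks later using previously defined criteria.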

lambsquarters [7] = test: Test Example 4: herbicidal effect by soil treatment (Table 19, symbol O); type: in vivo, lambsquarters (Chenopodium album); conditions: amount of applied herbicide 320 g/ha
Outline: as §1

Italian ryegrass [8] = test: Test Example 4: herbicidal effect by soil treatment (Table 19, symbol K); type: in vivo, Italian ryegrass (Lolium multiflorum); conditions: amount of applied herbicide 320 g/ha
Outline: as §1

blackgrass [9] = test: Test Example 4: herbicidal effect by soil treatment (Table 19, symbol J); type: in vivo, blackgrass (Alopecurus myosuroides); conditions: amount of applied herbicide 320 g/ha
Outline: as §1

blackgrass [10] = test: Test Example 5: herbicidal effect by foliage application, plastic box (Table 20, symbol J); type: in vivo, blackgrass (Alopecurus myosuroides); conditions: 320 g/ha, evaluated three weeks after application
Outline: as §3

wild oat [11] = test: Test Example 5: herbicidal effect by foliage application, plastic box (Table 20, symbol I); type: in vivo, wild oat (Avena fatua); conditions: 320 g/ha, evaluated three weeks after application
Outline: as §3

lambsquarters [12] = test: Test Example 5: herbicidal effect by foliage application, plastic box (Table 20, symbol O); type: in vivo, lambsquarters (Chenopodium album); conditions: 320 g/ha, evaluated three weeks after application
Outline: as §3

velvetleaf [13] = test: Test Example 5: herbicidal effect by foliage application, plastic box (Table 20, symbol M); type: in vivo, velvetleaf (Abutilon theophrasti); conditions: 320 g/ha, evaluated three weeks after application
Outline: as §3

late watergrass = test: Test Example 1: herbicidal activity, application before weed generation under submerged conditions (Table 16, symbol A); type: in vivo, late watergrass (Echinochloa oryzicola)
Outline: as §2

Chinese sprangletop = test: Test Example 3: herbicidal effect by foliage application, Wagner pot (Table 18, symbol D); type: in vivo, chinese sprangletop (Leptochloa chinensis)
Outline: as §4

southern crabgrass [14] = test: Test Example 4: herbicidal effect by soil treatment (Table 19, symbol F); type: in vivo, southern crabgrass (Digitaria ciliaris); conditions: amount of applied herbicide 320 g/ha
Outline: as §1

windgrass [15] = test: Test Example 5: herbicidal effect by foliage application, plastic box (Table 20, symbol L); type: in vivo, windgrass (Apera spica-venti); conditions: foliage application, 320 g/ha, evaluated three weeks after application
Outline: as §3

redroot pigweed [16] = test: Test Example 4: herbicidal effect by soil treatment (Table 19, symbol N); type: in vivo, redroot pigweed (Amaranthus retroflexus); conditions: amount of applied herbicide 320 g/ha
Outline: as §1

green foxtail [17] = test: Test Example 4: herbicidal effect by soil treatment (Table 19, symbol G); type: in vivo, green foxtail (Setaria viridis); conditions: amount of applied herbicide 320 g/ha
Outline: as §1

barnyard grass [18] = test: Test Example 5: herbicidal effect by foliage application, plastic box (Table 20, symbol H); type: in vivo, barnyard grass (Echinochloa crus-galli); conditions: 320 g/ha, evaluated three weeks after application
Outline: as §3

barnyard grass [19] = test: Test Example 3: herbicidal effect by foliage application, Wagner pot (Table 18, symbol H); type: in vivo, barnyard grass (Echinochloa crus-galli)
Outline: as §4

chickweed [20] = test: Test Example 5: herbicidal effect by foliage application, plastic box (Table 20, symbol P); type: in vivo, common chickweed (Stellaria media); conditions: 320 g/ha, evaluated three weeks after application
Outline: as §3

persian speedwell [21] = test: Test Example 5: herbicidal effect by foliage application, plastic box (Table 20, symbol R); type: in vivo, Persian speedwell (Veronica persica); conditions: 320 g/ha, evaluated three weeks after application
Outline: as §3

southern crabgrass [22] = test: Test Example 5: herbicidal effect by foliage application, plastic box (Table 20, symbol F); type: in vivo, southern crabgrass (Digitaria ciliaris); conditions: 320 g/ha, evaluated three weeks after application
Outline: as §3

windgrass [23] = test: Test Example 4: herbicidal effect by soil treatment (Table 19, symbol L); type: in vivo, windgrass (Apera spica-venti); conditions: amount of applied herbicide 320 g/ha
Outline: as §1

oval-leafed pondweed = test: Test Example 1: herbicidal activity, application before weed generation under submerged conditions (Table 16, symbol C); type: in vivo, oval-leafed pondweed (Monochoria vaginalis)
Outline: as §2

green foxtail [24] = test: Test Example 5: herbicidal effect by foliage application, plastic box (Table 20, symbol G); type: in vivo, green foxtail (Setaria viridis); conditions: 320 g/ha, evaluated three weeks after application
Outline: as §3

redroot pigweed [25] = test: Test Example 5: herbicidal effect by foliage application, plastic box (Table 20, symbol N); type: in vivo, redroot pigweed (Amaranthus retroflexus); conditions: 320 g/ha, foliage application after 14-day growth, evaluated three weeks after application
Outline: as §3

[26] = amount of applied herbicide 320 g/ha
[27] = foliage application after 14-day growth

CCCOc1ccc2sc(-c3ccc(F)cc3OC)c(-c3c(O)c(C)nn(C)c3=O)c2c1 [2-173]
R: persian speedwell, herbicidal effect rating (persian speedwell [1]): 0 (Herbicidal rate of 5% or less (almost no effect)) | P: chickweed, herbicidal effect rating (chickweed [2]): 3 (Herbicidal rate of 40% or more and less than 70%) | Herbicidal effect on B: Japanese bulrush (grade 0-5) (Japanese bulrush; 320 g/ha applied herbicide): 0 (Herbicidal rate of 5% or less (almost no effect)) | herbicidal effect on K: Italian ryegrass (criteria 0-5) (Italian ryegrass [3]; foliage application): 0 (Herbicidal rate of 5% or less (almost no effect)) | H: barnyard grass, herbicidal effect rating (barnyard grass [4]): 0 (Herbicidal rate of 5% or less (almost no effect)) | M: velvetleaf, herbicidal effect rating (velvetleaf [5]): 0 (Herbicidal rate of 5% or less (almost no effect)) | I: wild oat, herbicidal effect rating (wild oat [6]): 0 (Herbicidal rate of 5% or less (almost no effect)) | herbicidal effect on E: rice flat sedge (rice flat sedge; [26]): 2 (Herbicidal rate of 20% or more and less than 40%) | O: lambsquarters, herbicidal effect rating (lambsquarters [7]): 0 (Herbicidal rate of 5% or less (almost no effect)) | K: Italian ryegrass, herbicidal effect rating (Italian ryegrass [8]): 0 (Herbicidal rate of 5% or less (almost no effect)) | J: blackgrass, herbicidal effect rating (blackgrass [9]): 0 (Herbicidal rate of 5% or less (almost no effect)) | herbicidal effect on J: blackgrass (criteria 0-5) (blackgrass [10]; foliage application): 4 (Herbicidal rate of 70% or more and less than 90%) | herbicidal effect on I: wild oat (criteria 0-5) (wild oat [11]; foliage application): 0 (Herbicidal rate of 5% or less (almost no effect)) | herbicidal effect on O: lambsquarters (criteria 0-5) (lambsquarters [12]; foliage application): 1 (Herbicidal rate of 5% or more and less than 20%) | herbicidal effect on M: velvetleaf (criteria 0-5) (velvetleaf [13]; foliage application): 0 (Herbicidal rate of 5% or less (almost no effect)) | Herbicidal effect on A: late watergrass (grade 0-5) (late watergrass; 320 g/ha applied herbicide): 2 (Herbicidal rate of 20% or more and less than 40%) | herbicidal effect on D: Chinese sprangletop (Chinese sprangletop; [26]): 2 (Herbicidal rate of 20% or more and less than 40%) | F: southern crabgrass, herbicidal effect rating (southern crabgrass [14]): 0 (Herbicidal rate of 5% or less (almost no effect)) | herbicidal effect on L: windgrass (criteria 0-5) (windgrass [15]): 4 (Herbicidal rate of 70% or more and less than 90%) | N: redroot pigweed, herbicidal effect rating (redroot pigweed [16]): 0 (Herbicidal rate of 5% or less (almost no effect)) | G: green foxtail, herbicidal effect rating (green foxtail [17]): 0 (Herbicidal rate of 5% or less (almost no effect)) | herbicidal effect on H: barnyard grass (criteria 0-5) (barnyard grass [18]; foliage application): 0 (Herbicidal rate of 5% or less (almost no effect)) | herbicidal effect on H: barnyard grass (barnyard grass [19]; [26]): 3 (Herbicidal rate of 40% or more and less than 70%) | herbicidal effect on P: chickweed (criteria 0-5) (chickweed [20]; foliage application): 5 (Herbicidal rate of 90% or more (almost completely withered)) | herbicidal effect on R: persian speedwell (criteria 0-5) (persian speedwell [21]; foliage application): 5 (Herbicidal rate of 90% or more (almost completely withered)) | herbicidal effect on F: southern crabgrass (criteria 0-5) (southern crabgrass [22]; foliage application): 0 (Herbicidal rate of 5% or less (almost no effect)) | L: windgrass, herbicidal effect rating (windgrass [23]): 0 (Herbicidal rate of 5% or less (almost no effect)) | Herbicidal effect on C: oval-leafed pondweed (grade 0-5) (oval-leafed pondweed; 320 g/ha applied herbicide): 0 (Herbicidal rate of 5% or less (almost no effect)) | herbicidal effect on G: green foxtail (criteria 0-5) (green foxtail [24]; foliage application): 0 (Herbicidal rate of 5% or less (almost no effect))

COc1ccc(-c2sc3c(Cl)cccc3c2-c2c(O)c(C)nn(C)c2=O)cc1 [4-023]
Herbicidal effect by soil treatment, R: persian speedwell (persian speedwell [1]): 0 (Herbicidal rate of 5% or less (almost no effect)) | Herbicidal effect by soil treatment, P: chickweed (chickweed [2]): 5 (Herbicidal rate of 90% or more (almost completely withered)) | Herbicidal effect, B: Japanese bulrush (Japanese bulrush; [26]): 0 (Herbicidal rate of 5% or less (almost no effect)) | herbicidal effect on K: Italian ryegrass (evaluation grade 0-5) (Italian ryegrass [3]; [27]): 5 (Herbicidal rate of 90% or more (almost completely withered)) | Herbicidal effect by soil treatment, H: barnyard grass (barnyard grass [4]): 0 (Herbicidal rate of 5% or less (almost no effect)) | Herbicidal effect by soil treatment, M: velvetleaf (velvetleaf [5]): 0 (Herbicidal rate of 5% or less (almost no effect)) | Herbicidal effect by soil treatment, I: wild oat (wild oat [6]): 0 (Herbicidal rate of 5% or less (almost no effect)) | herbicidal effect on rice flat sedge (E) (rice flat sedge; 320 g/ha): 5 (Herbicidal rate of 90% or more (almost completely withered)) | Herbicidal effect by soil treatment, O: lambsquarters (lambsquarters [7]): 3 (Herbicidal rate of 40% or more and less than 70%) | Herbicidal effect by soil treatment, K: Italian ryegrass (Italian ryegrass [8]): 5 (Herbicidal rate of 90% or more (almost completely withered)) | Herbicidal effect by soil treatment, J: blackgrass (blackgrass [9]): 0 (Herbicidal rate of 5% or less (almost no effect)) | herbicidal effect on N: redroot pigweed (evaluation grade 0-5) (redroot pigweed [25]): 1 (Herbicidal rate of 5% or more and less than 20%) | herbicidal effect on J: blackgrass (evaluation grade 0-5) (blackgrass [10]; [27]): 0 (Herbicidal rate of 5% or less (almost no effect)) | herbicidal effect on I: wild oat (evaluation grade 0-5) (wild oat [11]; [27]): 0 (Herbicidal rate of 5% or less (almost no effect)) | herbicidal effect on O: lambsquarters (evaluation grade 0-5) (lambsquarters [12]; [27]): 2 (Herbicidal rate of 20% or more and less than 40%) | herbicidal effect on M: velvetleaf (evaluation grade 0-5) (velvetleaf [13]; [27]): 3 (Herbicidal rate of 40% or more and less than 70%) | Herbicidal effect, A: late watergrass (late watergrass; [26]): 3 (Herbicidal rate of 40% or more and less than 70%) | herbicidal effect on Chinese sprangletop (D) (Chinese sprangletop; 320 g/ha): 3 (Herbicidal rate of 40% or more and less than 70%) | Herbicidal effect by soil treatment, F: southern crabgrass (southern crabgrass [14]): 0 (Herbicidal rate of 5% or less (almost no effect)) | Herbicidal effect by soil treatment, N: redroot pigweed (redroot pigweed [16]): 2 (Herbicidal rate of 20% or more and less than 40%) | Herbicidal effect by soil treatment, G: green foxtail (green foxtail [17]): 0 (Herbicidal rate of 5% or less (almost no effect)) | herbicidal effect on H: barnyard grass (evaluation grade 0-5) (barnyard grass [18]; [27]): 2 (Herbicidal rate of 20% or more and less than 40%) | herbicidal effect on barnyard grass (H) (barnyard grass [19]; 320 g/ha): 5 (Herbicidal rate of 90% or more (almost completely withered)) | herbicidal effect on P: chickweed (evaluation grade 0-5) (chickweed [20]; [27]): 5 (Herbicidal rate of 90% or more (almost completely withered)) | herbicidal effect on R: persian speedwell (evaluation grade 0-5) (persian speedwell [21]; [27]): 0 (Herbicidal rate of 5% or less (almost no effect)) | herbicidal effect on F: southern crabgrass (evaluation grade 0-5) (southern crabgrass [22]; [27]): 0 (Herbicidal rate of 5% or less (almost no effect)) | Herbicidal effect by soil treatment, L: windgrass (windgrass [23]): 0 (Herbicidal rate of 5% or less (almost no effect)) | Herbicidal effect, C: oval-leafed pondweed (oval-leafed pondweed; [26]): 0 (Herbicidal rate of 5% or less (almost no effect)) | herbicidal effect on G: green foxtail (evaluation grade 0-5) (green foxtail [24]; [27]): 1 (Herbicidal rate of 5% or more and less than 20%)
